Patent US10676429B2, “Sulfamoyl-arylamides and the use thereof as medicaments for the treatment of hepatitis B” (priority 2012, dated 2020)

How the values were obtained:
HBV [1] = experiment: Anti-HBV activity in HepG2.117 cell line (Tet-off, intracellular HBV DNA, realtime PCR); assay type: cell-based; settings: HepG2.117 cells, 3 days of treatment, intracellular HBV DNA, read-out: HepG2 117 EC50
HepG2 cells [2] = experiment: Cytotoxicity in HepG2 cells, 4 days, Resazurin assay; settings: read-out: HepG2 4 days CC50; HepG2 cells, 4 days, Resazurin
HBV [3] = experiment: Anti-HBV activity in stable transfected HepG2.2.15 cell line (HBV DNA from secreted virions, realtime PCR); assay type: cell-based; settings: HepG2.2.15 cells, 6 days of treatment, secreted virion HBV DNA, read-out: HepG2 2.15 EC50
[4] = Cytotoxicity in HepG2 cells using CellTiter-Blue (6 days); settings: human
HepG2 cells [5] = experiment: as above; settings: read-out: HepG2 6 days CC50, 6 days, CellTiter-Blue
[6] = Cytotoxicity in HepG2 cells, 4 days, Resazurin assay; settings: human
[7] = Hepatitis B virus, HepG2.117, 72 h
[8] = Hepatitis B virus, HepG2.2.15, 144 h

Structure (SMILES)	CC50 (HepG2 cells [2])	EC50 (HBV [1]; [7])	EC50 (HBV [3]; [8])	further results
Cc1cc(NC(=O)c2cccc(S(=O)(=O)NC3Cc4ccccc4C3O)c2)ccc1F (single isomer, unassigned) [Compound 141c, N-(4-fluoro-3-methyl-phenyl)-3-[[(1S,2S)-1-hydroxyindan-2-yl]-sulfamoyl]benzamide or N-(4-fluoro-3-methyl-phenyl)-3-[[(1R,2R)-1-hydroxyindan-2-yl]sulfamoyl]benzamide]	> 25 µM	–	–	EC50 (HBV [1]): 0.29 µM; EC50 (HBV [3]): 0.17 µM
Cc1cc(NC(=O)c2cccc(S(=O)(=O)NC3Cc4ccccc4C3O)c2)ccc1F (single isomer, unassigned) [Compound 141d, N-(4-fluoro-3-methyl-phenyl)-3-[[(1R,2S)-1-hydroxyindan-2-yl]sulfamoyl]benzamide or N-(4-fluoro-3-methyl-phenyl)-3-[[(1S,2R)-1-hydroxyindan-2-yl]sulfamoyl]benzamide]	> 25 µM	–	–	EC50 (HBV [1]): 1.14 µM; EC50 (HBV [3]): 0.56 µM
Cc1cc(NC(=O)c2cccc(S(=O)(=O)NC3CCC(O)C3)c2)ccc1F (single isomer, unassigned) [Compound 145b, N-(4-fluoro-3-methyl-phenyl)-3-[[(1R,3S)-3-hydroxycyclopentyl]sulfamoyl]benzamide or N-(4-fluoro-3-methyl-phenyl)-3-[[(1S,3R)-3-hydroxycyclopentyl]sulfamoyl]benzamide]	> 25 µM	–	–	EC50 (HBV [1]): 0.58 µM; EC50 (HBV [3]): 0.44 µM
Cc1cc(NC(=O)c2cccc(S(=O)(=O)NC3CCC(O)C3)c2)ccc1F (single isomer, unassigned) [Compound 145c, N-(4-fluoro-3-methyl-phenyl)-3-[[(1S,3S)-3-hydroxycyclopentyl]-sulfamoyl]benzamide or N-(4-fluoro-3-methyl-phenyl)-3-[[(1R,3R)-3-hydroxycyclopentyl]sulfamoyl]benzamide]	> 25 µM	–	–	EC50 (HBV [1]): 0.34 µM; EC50 (HBV [3]): 0.34 µM
Cc1cc(NC(=O)c2cccc(S(=O)(=O)NC3CCC(O)C3)c2)ccc1F (single isomer, unassigned) [Compound 145d, N-(4-fluoro-3-methyl-phenyl)-3-[[(1S,3S)-3-hydroxycyclopentyl]-sulfamoyl]benzamide or N-(4-fluoro-3-methyl-phenyl)-3-[[(1R,3R)-3-hydroxycyclopentyl]sulfamoyl]benzamide]	> 25 µM	–	–	EC50 (HBV [1]): 0.64 µM; EC50 (HBV [3]): 0.4 µM
O=C(Nc1ccc(F)cc1)c1cccc(S(=O)(=O)NC2CCOCC2)c1 [Compound 1]	> 100 µM	1.67 µM	0.93 µM	–
O=C(Nc1ccc(F)cc1)c1cccc(S(=O)(=O)NC2CCCC2)c1 [Compound 2]	32.7 µM	0.56 µM	0.47 µM	–
O=C(Nc1ccc(F)cc1)c1cccc(S(=O)(=O)NC2COC2)c1 [Compound 3]	> 100 µM	3.05 µM	2.1 µM	–
O=C(Nc1ccc(F)cc1)c1cccc(S(=O)(=O)NC2CCC2)c1 [Compound 5]	57.7 µM	0.9 µM	0.83 µM	–
O=C(Nc1ccc(F)cc1)c1cccc(S(=O)(=O)N[C@@H]2CCOC2)c1 [Compound 8]	> 100 µM	2.03 µM	1.18 µM	–
O=C(Nc1ccc(F)cc1)c1cccc(S(=O)(=O)N[C@H]2CCOC2)c1 [Compound 9]	> 100 µM	1.36 µM	0.54 µM	–
CCC(CC)NS(=O)(=O)c1cccc(C(=O)Nc2ccc(F)cc2)c1 [Compound 10]	40.3 µM	3.63 µM	0.75 µM	–
O=C(Nc1ccc(F)cc1)c1cc(S(=O)(=O)NC2CCCCC2)ccc1F [Compound 18]	> 50 µM	1.3 µM	0.78 µM	CC50 at 6 days [4]: 51.6 µM
O=C(Nc1ccccc1)c1cc(S(=O)(=O)NC2CCCCC2)ccc1F [Compound 19]	> 25 µM	0.6 µM	0.66 µM	CC50 at 6 days [4]: 42.5 µM
O=C(Nc1ccccc1)c1cc(S(=O)(=O)N2CCCCC2)c(Cl)cc1Cl [Compound 20]	–	1 µM	0.5 µM	CC50 (HepG2 cells [5]): > 25 µM; CC50 at 4 days [6]: 79.6 µM
O=C(Nc1ccccc1)c1cccc(S(=O)(=O)NC2CCCC2)c1 [Compound 21]	–	0.76 µM	0.6 µM	CC50 (HepG2 cells [5]): 27.2 µM; CC50 at 4 days ([6]; HepG2 cells): 41.1 µM
Cc1cccc(NC(=O)c2cc(S(=O)(=O)N3CCCCC3)ccc2Cl)c1 [Compound 22]	–	–	0.52 µM	CC50 at 6 days [4]: > 25 µM
O=C(Nc1cccc(F)c1)c1cc(S(=O)(=O)N2CCCC2)c(Cl)cc1Cl [Compound 24]	–	–	0.79 µM	CC50 at 6 days [4]: > 25 µM
O=C(Nc1ccccc1)c1cc(S(=O)(=O)NCc2ccccc2)ccc1Cl [Compound 25]	–	1.02 µM	0.8 µM	CC50 at 6 days [4]: > 25 µM; CC50 at 4 days ([6]; HepG2 cells): > 6.25 µM
CCN(CC)S(=O)(=O)c1ccc(Cl)c(C(=O)Nc2ccccc2)c1 [Compound 26]	–	–	1.04 µM	CC50 (HepG2 cells [5]): > 25 µM
Cc1cccc(NC(=O)c2cc(S(=O)(=O)N3CCOCC3)ccc2Cl)c1 [Compound 27]	–	–	1.13 µM	CC50 at 6 days [4]: > 25 µM
CC(C)(C)NS(=O)(=O)c1cccc(C(=O)Nc2ccc(F)cc2)c1 [Compound 28]	52.5 µM	2.28 µM	1.24 µM	–
O=C(Nc1ccc(F)cc1)c1cc(S(=O)(=O)N2CCOCC2)ccc1Cl [Compound 29]	–	–	1.39 µM	CC50 at 6 days [4]: > 25 µM

Structure (SMILES)	CC50 (HepG2 cells [2])	EC50 (HBV [1]; [7])	EC50 (HBV [3]; [8])	further results
O=C(Nc1ccc(Br)cc1)c1ccc(Cl)c(S(=O)(=O)N2CCCCCC2)c1 [Compound 30]	–	–	1.67 µM	CC50 at 6 days [4]: > 25 µM
O=C(Nc1ccccc1)c1ccc(F)c(S(=O)(=O)NC2CCCCC2)c1 [Compound 31]	–	–	2.23 µM	CC50 (HepG2 cells [5]): 16.4 µM
COc1ccc(NC(=O)c2ccc(Cl)c(S(=O)(=O)N3CCCCCC3)c2)cc1 [Compound 32]	–	4.58 µM	2.59 µM	CC50 at 6 days [4]: 9.9 µM; CC50 at 4 days ([6]; HepG2 cells): > 25 µM
O=C(Nc1ccccc1Cl)c1ccc(Cl)c(S(=O)(=O)N2CCCCCC2)c1 [Compound 33]	–	–	3.56 µM	CC50 at 6 days [4]: > 25 µM
O=C(Nc1ccc(F)cc1)c1cccc(S(=O)(=O)N2CCCCC2)c1 [Compound 35]	70.4 µM	2.7 µM	4.5 µM	–
CN(C)S(=O)(=O)c1cccc(C(=O)Nc2ccc(F)cc2)c1 [Compound 37]	> 100 µM	2.99 µM	5.02 µM	–
O=C(Nc1ccc(Cl)cc1)c1cc(S(=O)(=O)NC2CCCCC2)ccc1F [Compound 38]	–	15.5 µM	< 6.25 µM	CC50 at 6 days [4]: 18.4 µM; CC50 at 4 days ([6]; HepG2 cells): 22.1 µM
CC(=O)N1CCC(NS(=O)(=O)c2cccc(C(=O)Nc3ccc(F)cc3)c2)CC1 [Compound 39]	> 100 µM	4.68 µM	6.77 µM	–
CC(=O)N1CCN(S(=O)(=O)c2cccc(C(=O)Nc3ccc(F)cc3)c2)CC1 [Compound 40]	> 100 µM	6.29 µM	7.1 µM	–
O=C(Nc1ccc(F)cc1)c1cccc(S(=O)(=O)N2CCOCC2)c1 [Compound 41]	> 100 µM	11 µM	8.49 µM	–
O=C(Nc1ccccc1Cl)c1cc(S(=O)(=O)NC2CCCCC2)ccc1F [Compound 42]	–	> 25 µM	11.6 µM	CC50 at 6 days [4]: 37.2 µM
O=C(Nc1cccc(Cl)c1)c1cc(S(=O)(=O)NC2CCCCC2)ccc1F [Compound 43]	–	> 25 µM	15.1 µM	CC50 at 6 days [4]: 36.3 µM; CC50 at 4 days ([6]; HepG2 cells): > 25 µM
CN1CCN(S(=O)(=O)c2cccc(C(=O)Nc3ccc(F)cc3)c2)CC1 [Compound 44]	> 100 µM	11.1 µM	26.5 µM	–
CN1CCC(NS(=O)(=O)c2cccc(C(=O)Nc3ccc(F)cc3)c2)CC1 [Compound 45]	> 100 µM	16 µM	59.3 µM	–
CN(C1CCCC1)S(=O)(=O)c1cccc(C(=O)Nc2ccc(F)cc2)c1 [Compound 46]	23.8 µM	11.1 µM	2.61 µM	–
CC(C)NS(=O)(=O)c1cccc(C(=O)Nc2ccc(F)cc2)c1 [Compound 47]	57.5 µM	0.96 µM	0.74 µM	–
O=C(Nc1cccc(F)c1)c1cccc(S(=O)(=O)NC2CCCC2)c1 [Compound 77]	> 25 µM	0.43 µM	0.27 µM	–
COc1cc(NC(=O)c2cccc(S(=O)(=O)N[C@H]3CCOC3)c2)ccc1F [Compound 103]	> 25 µM	2.66 µM	2.33 µM	–
Cc1c(F)ccc(NC(=O)c2cccc(S(=O)(=O)N[C@H]3CCOC3)c2)c1F [Compound 104]	> 25 µM	0.78 µM	0.29 µM	–
Cc1cc(NC(=O)c2cccc(S(=O)(=O)N[C@H]3CCOC3)c2)c(F)cc1F [Compound 106]	> 25 µM	3.3 µM	2.22 µM	–
Cc1c(F)ccc(NC(=O)c2cccc(S(=O)(=O)NC3(C)COC3)c2)c1C [Compound 115]	> 25 µM	1.65 µM	2.74 µM	–
Cc1c(NC(=O)c2cccc(S(=O)(=O)N[C@H]3CCOC3)c2)ccc(F)c1F [Compound 118]	> 25 µM	1.91 µM	3.63 µM	–
Cc1cc(NC(=O)c2cccc(S(=O)(=O)NC3(C)COC3)c2)c(C)cc1F [Compound 119]	> 25 µM	1.91 µM	3.06 µM	–
